According to PubChem BioAssay AID306 (DTP/NCI, 2004):
Where “and” joins values, the source holds several entries; their conditions need not be identical. Identical values can stand only once. Inconclusive results and toxic doses are left out.

Tested on: BDF1 mice, L1210 Methyl-GAG-resistant leukemia, survival T/C
Experiment: NCI In Vivo Anticancer Drug Screen. Data for tumor model L1210 Leukemia resistant to Methyl-GAG; NSC 32946 (subcutaneous) in B6D2F1 (BDF1) mice
Settings: endpoint: mean survival time, higher = longer survival
Method: The antitumor activity of compounds was measured in mice bearing transplantable tumors. Survival or tumor size were measured and the results are expressed as the measurement made in the treated group (T) divided by the measurement made in the vehicle treated control group (C). The tumor model used in this assay is L1210 Leukemia resistant to Methyl-GAG; NSC 32946 (subcutaneous) in B6D2F1 (BDF1) mice

[1] = dose: 1.9 mg/kg/injection, schedule: Q01DX Z (ip), vehicle: carboxymethylcellulose (CMC)
[2] = dose: 7.5 mg/kg/injection, schedule: Q01DX Z (ip), vehicle: carboxymethylcellulose (CMC)
[3] = dose: 12.5 mg/kg/injection, schedule: Q01DX Z (ip), vehicle: carboxymethylcellulose (CMC)
[4] = dose: 25.0 mg/kg/injection, schedule: Q01DX Z (ip), vehicle: carboxymethylcellulose (CMC)
[5] = dose: 50.0 mg/kg/injection, schedule: Q01DX Z (ip), vehicle: carboxymethylcellulose (CMC)
[6] = dose: 100.0 mg/kg/injection, schedule: Q01DX Z (ip), vehicle: carboxymethylcellulose (CMC)
[7] = dose: 62.5 mg/kg/injection, schedule: Q01DX Z (ip), vehicle: carboxymethylcellulose (CMC)
[8] = dose: 125.0 mg/kg/injection, schedule: Q01DX Z (ip), vehicle: carboxymethylcellulose (CMC)
[9] = dose: 500.0 mg/kg/injection, schedule: Q01DX Z (ip), vehicle: carboxymethylcellulose (CMC)
[10] = dose: 1000.0 mg/kg/injection, schedule: Q01DX Z (ip), vehicle: carboxymethylcellulose (CMC)
[11] = dose: 25.0 mg/kg/injection, schedule: Q01DX Z (sc), vehicle: steriod suspending solution
[12] = dose: 50.0 mg/kg/injection, schedule: Q01DX Z (sc), vehicle: steriod suspending solution
[13] = dose: 100.0 mg/kg/injection, schedule: Q01DX Z (sc), vehicle: steriod suspending solution
[14] = dose: 200.0 mg/kg/injection, schedule: Q01DX Z (sc), vehicle: steriod suspending solution
[15] = dose: 400.0 mg/kg/injection, schedule: Q01DX Z (sc), vehicle: steriod suspending solution
[16] = dose: 62.5 mg/kg/injection, schedule: Q01DX Z (sc), vehicle: steriod suspending solution
[17] = dose: 1.0 mg/kg/injection, schedule: Q01DX Z (ip), vehicle: carboxymethylcellulose (CMC)
[18] = dose: 2.0 mg/kg/injection, schedule: Q01DX Z (ip), vehicle: carboxymethylcellulose (CMC)
[19] = dose: 8.0 mg/kg/injection, schedule: Q01DX Z (ip), vehicle: carboxymethylcellulose (CMC)
[20] = dose: 31.0 mg/kg/injection, schedule: Q01DX Z (ip), vehicle: carboxymethylcellulose (CMC)

In the case of `C=CC(CN1CC1)OC(C)=O` (stereo not drawn), the T/C (dose: 0.95 mg/kg/injection, schedule: Q01DX Z (ip), vehicle: carboxymethylcellulose (CMC)) is reported as 100 % of control, the T/C [1] is reported as 118 % of control and the T/C (dose: 3.8 mg/kg/injection, schedule: Q01DX Z (ip), vehicle: carboxymethylcellulose (CMC)) is reported as 118 % of control. The T/C [2] was 120 % of control.

In the case of `O=C(Nc1ccc(C2=NCCCN2)cc1)c1ccc(C(=O)Nc2ccc(C3=NCCCN3)cc2)cc1`, the T/C (dose: 0.2 mg/kg/injection, schedule: Q01DX Z (ip), vehicle: water) is reported as 100 % of control, the T/C (dose: 0.4 mg/kg/injection, schedule: Q01DX Z (ip), vehicle: water) is reported as 108 % of control and the T/C (dose: 0.8 mg/kg/injection, schedule: Q01DX Z (ip), vehicle: water) is reported as 121 % of control. For the same compound, the T/C (dose: 1.6 mg/kg/injection, schedule: Q01DX Z (ip), vehicle: water) was 158 % of control and 211 % of control and the T/C (dose: 3.1 mg/kg/injection, schedule: Q01DX Z (ip), vehicle: water) was 212 % of control.

For `Cn1cnc([N+](=O)[O-])c1Sc1ncnc2nc[nH]c12`, the T/C [3] was 105 % of control, the T/C [4] was 103 % of control and the T/C [5] was 124 % of control. The T/C [6] was 88 % of control.

For `CCCNc1ncnc2[nH]ncc12`, the T/C (dose: 5.0 mg/kg/injection, schedule: Q01DX Z (ip), vehicle: water) was 96 % of control, the T/C (dose: 10.0 mg/kg/injection, schedule: Q01DX Z (ip), vehicle: water) was 93 % of control and the T/C (dose: 20.0 mg/kg/injection, schedule: Q01DX Z (ip), vehicle: water) was 120 % of control. The T/C (dose: 40.0 mg/kg/injection, schedule: Q01DX Z (ip), vehicle: water) was 88 % of control and 112 % of control.

For `O=c1cn[nH]c(=O)[nH]1`, the T/C [7] was 96 % of control, the T/C [8] was 106 % of control and the T/C (dose: 250.0 mg/kg/injection, schedule: Q01DX Z (ip), vehicle: carboxymethylcellulose (CMC)) was 116 % of control. The T/C [9] was 114 % of control and the T/C [10] was 112 % of control.

`Clc1ccc(C(c2ccccc2Cl)C(Cl)Cl)cc1` (stereo not drawn) was tested, and the T/C (dose: 12.5 mg/kg/injection, schedule: Q01DX Z (sc), vehicle: steriod suspending solution) was 105 % of control, the T/C [11] was 102 % of control and the T/C [12] was 98 % of control. For the same compound, the T/C [13] was 100 % of control, the T/C [14] was 105 % of control and the T/C [15] was 101 % of control. For the same compound, the T/C (dose: 800.0 mg/kg/injection, schedule: Q01DX Z (sc), vehicle: steriod suspending solution) was 109 % of control.

With `CC[C@@H](c1ccc(O)cc1)[C@@H](CC)c1ccc(O)cc1` the T/C (dose: 16.0 mg/kg/injection, schedule: Q01DX Z (sc), vehicle: steriod suspending solution) was 96 % of control, the T/C (dose: 32.0 mg/kg/injection, schedule: Q01DX Z (sc), vehicle: steriod suspending solution) was 96 % of control and the T/C [16] was 100 % of control. For the same compound, the T/C (dose: 125.0 mg/kg/injection, schedule: Q01DX Z (sc), vehicle: steriod suspending solution) was 100 % of control, the T/C (dose: 250.0 mg/kg/injection, schedule: Q01DX Z (sc), vehicle: steriod suspending solution) was 108 % of control and the T/C (dose: 500.0 mg/kg/injection, schedule: Q01DX Z (sc), vehicle: steriod suspending solution) was 98 % of control and 101 % of control. For the same compound, the T/C (dose: 1000.0 mg/kg/injection, schedule: Q01DX Z (sc), vehicle: steriod suspending solution) was 95 % of control.

In the case of `Nc1ncnc2[nH]ncc12`, the T/C (dose: 0.8 mg/kg/injection, schedule: Q01DX Z (ip), vehicle: carboxymethylcellulose (CMC)) is reported as 102 % of control, the T/C (dose: 1.6 mg/kg/injection, schedule: Q01DX Z (ip), vehicle: carboxymethylcellulose (CMC)) is reported as 100 % of control and the T/C (dose: 3.1 mg/kg/injection, schedule: Q01DX Z (ip), vehicle: carboxymethylcellulose (CMC)) is reported as 104 % of control. The T/C (dose: 6.25 mg/kg/injection, schedule: Q01DX Z (ip), vehicle: carboxymethylcellulose (CMC)) was 106 % of control, the T/C [3] was 102 % of control and the T/C [4] was 90 % of control. For the same compound, the T/C [5] was 93 % of control and 96 % of control.

For `C[C@]12CCC(=O)C=C1CC[C@@H]1[C@@H]2C(=O)C[C@@]2(C)[C@H]1CC[C@]2(O)C(=O)CO`, the T/C (dose: 6.25 mg/kg/injection, schedule: Q01DX Z (sc), vehicle: steriod suspending solution) was 100 % of control, the T/C [11] was 102 % of control and the T/C [16] was 121 % of control. For the same compound, the T/C [13] was 113 % of control and the T/C [15] was 116 % of control.

With `COc1cc2c(c(OC)c1OC)-c1ccc(OC)c(=O)cc1[C@@H](NC(C)=O)CC2` the T/C (dose: 0.12 mg/kg/injection, schedule: Q01DX Z (ip), vehicle: saline) was 95 % of control, the T/C (dose: 0.25 mg/kg/injection, schedule: Q01DX Z (ip), vehicle: saline) was 96 % of control and the T/C (dose: 0.5 mg/kg/injection, schedule: Q01DX Z (ip), vehicle: saline) was 101 % of control.

With `Clc1ncnc2nc[nH]c12` the T/C (dose: 31.25 mg/kg/injection, schedule: Q01DX Z (ip), vehicle: carboxymethylcellulose (CMC)) was 100 % of control, the T/C [7] was 90 % of control and the T/C [8] was 121 % of control.

`Cn1cnc([N+](=O)[O-])c1Sc1nc(N)nc2nc[nH]c12` was tested, and the T/C [17] was 98 % of control, the T/C [18] was 106 % of control and the T/C (dose: 4.0 mg/kg/injection, schedule: Q01DX Z (ip), vehicle: carboxymethylcellulose (CMC)) was 162 % of control. For the same compound, the T/C [19] was 88 % of control.

`N#CCSc1ncnc2nc[nH]c12` was tested, and the T/C [3] was 101 % of control, the T/C [4] was 110 % of control and the T/C [5] was 123 % of control.

For `C[C@]12C=CC(=O)C=C1CC[C@@H]1[C@@H]2C(=O)C[C@@]2(C)[C@H]1CC[C@]2(O)C(=O)CO`, the T/C [11] was 91 % of control and 115 % of control, the T/C [12] was 103 % of control and the T/C [13] was 150 % of control. The T/C [14] was 115 % of control and the T/C [15] was 112 % of control and 118 % of control.

`O=C(Nc1ccc(C2=NCCN2)cc1)c1ccc(C(=O)Nc2ccc(C3=NCCN3)cc2)cc1` was tested, and the T/C [4] was 98 % of control, the T/C [5] was 98 % of control and the T/C [6] was 124 % of control. The T/C (dose: 200.0 mg/kg/injection, schedule: Q01DX Z (ip), vehicle: carboxymethylcellulose (CMC)) was 236 % of control and the T/C (dose: 400.0 mg/kg/injection, schedule: Q01DX Z (ip), vehicle: carboxymethylcellulose (CMC)) was 104 % of control.

With `CCn1cnc2c(=S)nc[nH]c21` the T/C [19] was 113 % of control, the T/C (dose: 16.0 mg/kg/injection, schedule: Q01DX Z (ip), vehicle: carboxymethylcellulose (CMC)) was 106 % of control and the T/C [20] was 120 % of control.

For `CN(C)CC(=O)c1ccc(O)c(O)c1`, the T/C (dose: 31.25 mg/kg/injection, schedule: Q01DX Z (ip), vehicle: saline) was 98 % of control, the T/C (dose: 62.5 mg/kg/injection, schedule: Q01DX Z (ip), vehicle: saline) was 96 % of control and the T/C (dose: 125.0 mg/kg/injection, schedule: Q01DX Z (ip), vehicle: saline) was 99 % of control. The T/C (dose: 250.0 mg/kg/injection, schedule: Q01DX Z (ip), vehicle: saline) was 99 % of control and 100 % of control and the T/C (dose: 500.0 mg/kg/injection, schedule: Q01DX Z (ip), vehicle: saline) was 97 % of control and 106 % of control.

In the case of `NC(=O)N(CCCl)N=O`, the T/C (dose: 0.5 mg/kg/injection, schedule: Q01DX Z (ip), vehicle: carboxymethylcellulose (CMC)) is reported as 95 % of control, the T/C [17] is reported as 96 % of control and 101 % of control and the T/C [18] is reported as 100 % of control and 101 % of control.

For `CN(Cc1cnc2nc(N)nc(N)c2n1)c1c(Cl)cc(C(=O)NC(CCC(=O)O)C(=O)O)cc1Cl` (stereo not drawn), the T/C [3] was 116 % of control, the T/C [5] was 195 % of control and the T/C [6] was 317 % of control.

`S=P(N1CCOCC1)(N1CC1)N1CC1` was tested, and the T/C [3] was 104 % of control and the T/C [4] was 102 % of control.

`[I][Hg][CH2]C1COC([CH2][Hg][I])CO1` (stereo not drawn) was tested, and the T/C [1] was 102 % of control, the T/C (dose: 3.75 mg/kg/injection, schedule: Q01DX Z (ip), vehicle: carboxymethylcellulose (CMC)) was 95 % of control and the T/C [2] was 102 % of control. For the same compound, the T/C (dose: 15.0 mg/kg/injection, schedule: Q01DX Z (ip), vehicle: carboxymethylcellulose (CMC)) was 113 % of control, the T/C (dose: 30.0 mg/kg/injection, schedule: Q01DX Z (ip), vehicle: carboxymethylcellulose (CMC)) was 150 % of control and the T/C (dose: 60.0 mg/kg/injection, schedule: Q01DX Z (ip), vehicle: carboxymethylcellulose (CMC)) was 107 % of control.

For `O=c1[nH]c(=O)n(C2CC(O)C(CO)O2)cc1Br` (stereo not drawn), the T/C [20] was 95 % of control, the T/C (dose: 63.0 mg/kg/injection, schedule: Q01DX Z (ip), vehicle: carboxymethylcellulose (CMC)) was 92 % of control and the T/C [8] was 113 % of control. For the same compound, the T/C [9] was 118 % of control and the T/C [10] was 120 % of control.
